In PubChem BioAssay AID687005 (Broad Institute, 2013):
Results filed as inconclusive are left out. Activity calls are given as the source filed them.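 The calls were made as follows: active = Compounds that reduce signal, with fitted half-maximal dose at or under twice the top valid tested dose; inconclusive = Poor fit, or flat curve losing 30 to 70% of signal; inactive = Potency past limit, flat within 30%, or opposite direction.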

Assay: HEK293T cell cytotoxicity, dose response, cytotoxicity control, ATP luminescence, cherry-pick samples (AID 687005)
Conditions: HEK293T viability, ATP luminescence (CellTiter-Glo), 48 h; at 23.5 µM (top of the series)

Question: With `COc1cccc(S(=O)(=O)Nc2ccc3c(c2)[C@H]2C[C@@H](CC(=O)NC4CCCCC4)O[C@@H](CO)[C@H]2O3)c1` as the compound, how does the activity change, negative = cytotoxicity read?
Answer: Its activity change, negative = cytotoxicity is -20.2% (inactive).

Question: With `CCCNC(=O)C[C@@H]1CC[C@@H]2[C@@H](COc3ccc(NC(=O)CCC)cc3C(=O)N2C)O1` as the compound, how does the activity change, negative = cytotoxicity read?
Answer: The activity change, negative = cytotoxicity was 9.04% (inactive).

Question: Which activity change, negative = cytotoxicity does the source give for `C[C@H]1CN([C@@H](C)CO)C(=O)Cc2cc(NC(=O)Nc3ccccc3)ccc2O[C@@H]1CN(C)C(=O)Nc1ccc2c(c1)OCO2` here?
Answer: The activity change, negative = cytotoxicity was -18.7% (inactive).

Question: For `CO[C@@H]1CN(C)C(=O)c2ccc(NC(C)=O)cc2OC[C@@H](C)N(C(=O)c2ccccn2)C[C@H]1C`, which activity change, negative = cytotoxicity is on record?
Answer: The activity change, negative = cytotoxicity was 14.8% (inactive).

Same assay, conditions: HEK293T viability, ATP luminescence (CellTiter-Glo), 48 h; at 26 µM (top of the series)

Question: Which activity change, negative = cytotoxicity does the source give for `O=C(c1cccnc1)N1C[C@H]2[C@@H](c3ccccc31)[C@@H](CO)N2C(=O)Nc1ccc(F)cc1` here?
Answer: Its activity change, negative = cytotoxicity is -19.7% (inactive).

Question: With `COc1ccc(C#Cc2ccc3c(c2)O[C@H](CN(C)C(C)=O)[C@@H](C)CN([C@@H](C)CO)S3(=O)=O)cc1` as the compound, how does the activity change, negative = cytotoxicity read?
Answer: Its activity change, negative = cytotoxicity is -74% (inactive).

Question: Which activity change, negative = cytotoxicity does the source give for `O=C(NC1CCCCC1)N[C@@H]1CC[C@@H](CCNS(=O)(=O)c2ccc(Cl)cc2)O[C@H]1CO` here?
Answer: Its activity change, negative = cytotoxicity is 45.5% (inactive).

Question: With `COCC#Cc1cnc2c(c1)C(=O)N([C@@H](C)CO)C[C@@H](C)[C@@H](CN(C)C(=O)C1CC1)O2` as the compound, how does the activity change, negative = cytotoxicity read?
Answer: Its activity change, negative = cytotoxicity is -14.4% (inactive).

Question: For `CC(=O)NC[C@@H]1[C@@H](c2ccc(C3=CCCC3)cc2)[C@@H](CO)N1C(=O)NC(C)C`, which activity change, negative = cytotoxicity is on record?
Answer: The activity change, negative = cytotoxicity was 6.26% (inactive).

Question: With `Cc1cc(C(=O)Nc2ccc3c(c2)C(=O)N(C)[C@@H]2CC[C@@H](CC(=O)N[C@@H](C)c4ccccc4)O[C@@H]2CO3)no1` as the compound, how does the activity change, negative = cytotoxicity read?
Answer: Its activity change, negative = cytotoxicity is -33.4% (inactive).

Question: With `O=C(NC[C@@H]1[C@H](c2ccccc2)[C@@H](CO)N1C(=O)Cc1cccnc1)C1CCC1` as the compound, how does the activity change, negative = cytotoxicity read?
Answer: The activity change, negative = cytotoxicity was 8.39% (inactive).

Question: Which activity change, negative = cytotoxicity does the source give for `COc1ccc(-n2ncc3c(SCC(=O)OC(C)C)ncnc32)cc1` here?
Answer: The activity change, negative = cytotoxicity was -5.94% (inactive).

Question: For `CCC(=O)N1[C@H](C(=O)Nc2ccccc2)[C@@H](CO)[C@@H]2Cn3c(ccc(-c4ccncc4)c3=O)[C@@H]21`, which activity change, negative = cytotoxicity is on record?
Answer: The activity change, negative = cytotoxicity was 24.7% (inactive).

Question: With `Cc1noc(C)c1NC(=O)Nc1ccc2c(c1)C(=O)N([C@@H](C)CO)C[C@H](C)[C@H](CN(C)CC1CCCCC1)O2` as the compound, how does the activity change, negative = cytotoxicity read?
Answer: Its activity change, negative = cytotoxicity is -11.6% (inactive).

Question: Which activity change, negative = cytotoxicity does the source give for `CO[C@@H]1CN(C)C(=O)c2ccc(NC(=O)C3CC3)cc2OC[C@H](C)N(C(=O)c2ccncc2)C[C@H]1C` here?
Answer: The activity change, negative = cytotoxicity was -27.7% (inactive).

Question: With `O=C(C[C@@H]1CC[C@@H]2[C@H](COC[C@H](O)CN2Cc2cccc(C(F)(F)F)c2)O1)NCc1ccc(Cl)cc1` as the compound, how does the activity change, negative = cytotoxicity read?
Answer: Its activity change, negative = cytotoxicity is 9.32% (inactive).

Question: With `CC(=O)N[C@H]1CC[C@H](CCNC(=O)C2CCC2)O[C@@H]1CO` as the compound, how does the activity change, negative = cytotoxicity read?
Answer: Its activity change, negative = cytotoxicity is 10.8% (inactive).

Question: Which activity change, negative = cytotoxicity does the source give for `CC1(C(=O)Nc2ccc3ccccc3c2)CCC(=O)N1C1CC1` (stereo not drawn) here?
Answer: Its activity change, negative = cytotoxicity is -28.4% (inactive).

Question: For `C[C@H]1CN([C@@H](C)CO)C(=O)c2cc(NC(=O)Nc3cccc4ccccc34)ccc2O[C@@H]1CN(C)C(=O)Nc1ccc(C(F)(F)F)cc1`, which activity change, negative = cytotoxicity is on record?
Answer: Its activity change, negative = cytotoxicity is 1.29% (inactive).

Question: Which activity change, negative = cytotoxicity does the source give for `CNC[C@H]1Oc2ccc(NC(=O)Cc3cn(C)c4ccccc34)cc2CC(=O)N([C@@H](C)CO)C[C@H]1C` here?
Answer: The activity change, negative = cytotoxicity was 27% (inactive).

Question: For `S=C(NCc1ccccc1)NCC1COc2ccccc2O1` (stereo not drawn), which activity change, negative = cytotoxicity is on record?
Answer: Its activity change, negative = cytotoxicity is -15.9% (inactive).

Question: For `CCCNC(=O)C[C@H]1C[C@H]2c3cc(NC(=O)Nc4ccc(OC)cc4)ccc3O[C@H]2[C@@H](CO)O1`, which activity change, negative = cytotoxicity is on record?
Answer: Its activity change, negative = cytotoxicity is -21% (inactive).

Question: For `C[C@@H]1CCCCO[C@H](CN(C)S(=O)(=O)c2cccs2)[C@@H](C)CN([C@@H](C)CO)C(=O)c2cc(NC(=O)CCC(F)(F)F)ccc2O1`, which activity change, negative = cytotoxicity is on record?
Answer: Its activity change, negative = cytotoxicity is 0.337% (inactive).

Question: Which activity change, negative = cytotoxicity does the source give for `CC(C)CC#Cc1cnc2c(c1)C(=O)N([C@H](C)CO)C[C@H](C)[C@@H](CN(C)Cc1cccc(F)c1)O2` here?
Answer: Its activity change, negative = cytotoxicity is -9.35% (inactive).

Question: Which activity change, negative = cytotoxicity does the source give for `COc1cccc(NC(=O)N2C[C@H](O)COC[C@H]3O[C@@H](CC(=O)NCc4ccccc4F)CC[C@@H]32)c1` here?
Answer: Its activity change, negative = cytotoxicity is -23.2% (inactive).

Question: For `Cc1noc(C)c1NC(=O)Nc1ccc2c(c1)C(=O)N([C@H](C)CO)C[C@H](C)[C@H](CN(C)CC1CCCCC1)O2`, which activity change, negative = cytotoxicity is on record?
Answer: Its activity change, negative = cytotoxicity is 40.9% (inactive).

Question: Which activity change, negative = cytotoxicity does the source give for `Cc1cc(C(=O)Nc2cccc3c2O[C@H](CN(C)S(=O)(=O)c2ccccc2)[C@H](C)CN([C@H](C)CO)C3=O)n(C)n1` here?
Answer: Its activity change, negative = cytotoxicity is 16.8% (inactive).

Question: Which activity change, negative = cytotoxicity does the source give for `CNC[C@H]1OCCCC[C@H](C)Oc2ccc(NC(=O)CCCN(C)C)cc2C(=O)N([C@H](C)CO)C[C@@H]1C` here?
Answer: Its activity change, negative = cytotoxicity is 15.7% (inactive).

Question: Which activity change, negative = cytotoxicity does the source give for `CCN(Cc1ccccc1)C(=O)COc1ccccc1` here?
Answer: The activity change, negative = cytotoxicity was -2.56% (inactive).

Question: Which activity change, negative = cytotoxicity does the source give for `O=C(C[C@H]1C=C[C@H](NC(=O)Nc2cc(F)ccc2F)[C@@H](CO)O1)NCCCN1CCOCC1` here?
Answer: Its activity change, negative = cytotoxicity is 27.4% (inactive).

Question: Which activity change, negative = cytotoxicity does the source give for `C[C@@H](O)C#Cc1ccc([C@@H]2[C@H](CO)N3CCCCN(CC4CC4)C[C@@H]23)cc1` here?
Answer: The activity change, negative = cytotoxicity was -28.3% (inactive).

Question: With `COc1ccccc1-c1ccc2c(c1)O[C@@H](CN(C)C(=O)c1cccnc1)[C@H](C)CN([C@@H](C)CO)S2(=O)=O` as the compound, how does the activity change, negative = cytotoxicity read?
Answer: The activity change, negative = cytotoxicity was -38% (inactive).

Question: With `COCCNC(=O)C[C@H]1CC[C@@H]2[C@H](COC[C@H](O)CN2S(=O)(=O)c2ccccc2C)O1` as the compound, how does the activity change, negative = cytotoxicity read?
Answer: Its activity change, negative = cytotoxicity is 15.9% (inactive).

Question: Which activity change, negative = cytotoxicity does the source give for `COc1ccc(NC(=O)Nc2ccc3c(c2)C(=O)N([C@H](C)CO)C[C@@H](C)[C@@H](CN(C)C(=O)CCC(F)(F)F)OCCCC[C@H](C)O3)cc1` here?
Answer: The activity change, negative = cytotoxicity was -34.4% (inactive).

Question: With `COCC(=O)N1[C@H](C#N)[C@H](c2ccc(C#Cc3ccccc3F)cc2)[C@H]1CO` as the compound, how does the activity change, negative = cytotoxicity read?
Answer: Its activity change, negative = cytotoxicity is 8.29% (inactive).

Question: For `N#Cc1ccc(C23CC4(C2)[C@H](CN(Cc2ccc(C(F)(F)F)cc2)[C@@H]4c2ccccc2)C3c2ccc(C(F)(F)F)cc2)cc1` (stereo partly drawn), which activity change, negative = cytotoxicity is on record?
Answer: The activity change, negative = cytotoxicity was 10.4% (inactive).

Question: With `Cc1cccc(OCC(=O)NCc2ccccc2)c1` as the compound, how does the activity change, negative = cytotoxicity read?
Answer: Its activity change, negative = cytotoxicity is -36.8% (inactive).

Question: For `C[C@@H]1CN([C@@H](C)CO)C(=O)c2cccc(N(C)C)c2O[C@H]1CN(C)C(=O)Nc1ccc(C(F)(F)F)cc1`, which activity change, negative = cytotoxicity is on record?
Answer: The activity change, negative = cytotoxicity was -5.69% (inactive).

Question: Which activity change, negative = cytotoxicity does the source give for `COCC#Cc1cnc2c(c1)C(=O)N([C@H](C)CO)C[C@H](C)[C@H](CN(C)C(=O)C1CC1)O2` here?
Answer: Its activity change, negative = cytotoxicity is -5.58% (inactive).

Question: With `CC1=C(C(=O)OCc2ccccc2)C(c2ccccc2)NC(=O)N1` (stereo not drawn) as the compound, how does the activity change, negative = cytotoxicity read?
Answer: Its activity change, negative = cytotoxicity is 13.2% (inactive).

Question: Which activity change, negative = cytotoxicity does the source give for `Cc1noc(C)c1S(=O)(=O)Nc1ccc2c(c1)C(=O)N([C@H](C)CO)C[C@H](C)[C@H](CN(C)Cc1ccncc1)O2` here?
Answer: The activity change, negative = cytotoxicity was 37.8% (inactive).

Question: Which activity change, negative = cytotoxicity does the source give for `COc1ccc(N2CCN(C(=O)CSc3ncnc4c3cnn4-c3ccc(OC)cc3)CC2)cc1` here?
Answer: The activity change, negative = cytotoxicity was -4.11% (inactive).

Question: With `C[C@@H]1CN([C@@H](C)CO)C(=O)c2cc(/C=C/c3ccccc3)cnc2O[C@@H]1CN(C)S(C)(=O)=O` as the compound, how does the activity change, negative = cytotoxicity read?
Answer: Its activity change, negative = cytotoxicity is 10.2% (inactive).

Question: Which activity change, negative = cytotoxicity does the source give for `C[C@H]1CN([C@@H](C)CO)C(=O)Cc2cc(NS(=O)(=O)c3ccc(F)cc3)ccc2O[C@H]1CN(C)S(=O)(=O)c1ccc(F)cc1` here?
Answer: Its activity change, negative = cytotoxicity is 6.2% (inactive).

Question: Which activity change, negative = cytotoxicity does the source give for `COc1cccc(-c2cn(CC[C@@H]3CC[C@@H](NC(C)=O)[C@H](CO)O3)nn2)c1` here?
Answer: Its activity change, negative = cytotoxicity is 53.3% (inactive).

Same assay, conditions: HEK293T viability, ATP luminescence (CellTiter-Glo), 48 h; at 35 µM (top of the series)

Question: Which activity change, negative = cytotoxicity does the source give for `Cc1cccc(N2CCN(C(=O)C3CCC(=O)N3C(C)C)CC2C)c1` (stereo not drawn) here?
Answer: The activity change, negative = cytotoxicity was 21% (inactive).

Same assay, conditions: HEK293T viability, ATP luminescence (CellTiter-Glo), 48 h; at 38 µM (top of the series)

Question: For `Cc1ccc(NC(=O)C2(C)CCN2C(=O)CC2CCCC2)cc1` (stereo not drawn), which activity change, negative = cytotoxicity is on record?
Answer: The activity change, negative = cytotoxicity was -16.5% (inactive).

Same assay, conditions: HEK293T viability, ATP luminescence (CellTiter-Glo), 48 h; at 42 µM (top of the series)

Question: For `Cc1ccc(C)c(NC(=O)C2(C)CCCN2C(=O)C(C)C)c1` (stereo not drawn), which activity change, negative = cytotoxicity is on record?
Answer: The activity change, negative = cytotoxicity was -23.6% (inactive).
